Measured values taken from ChEMBL document CHEMBL1201862, “PubChem BioAssay data set” (2004).
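Where inhibition never reached the appropriate level, the endpoint shown equals the highest concentration tested. Otherwise, values were interpolated linearly from a five-concentration, 48-hour dose response in 96-well plates. GI50: concentration for 50% inhibition of growth.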 Activity calls are given as the source filed them. Rule as the data show it: active = GI50 up to about 1.1 µM and inactive = higher.

Assays:
Assay in all cases: DTP human tumour cell line panel, 48 h
OVCAR-8 = tested on: OVCAR-8
HCT-116 = tested on: HCT-116
UO-31 = tested on: UO-31
SK-MEL-5 = tested on: SK-MEL-5
A498 = tested on: A498
UACC-257 = tested on: UACC-257
HT-29 = tested on: HT-29
SNB-75 = tested on: SNB-75
CAKI-1 = tested on: CAKI-1
K562 = tested on: K562
KM12 = tested on: KM12
SN12C = tested on: SN12C
BT-549 = tested on: BT-549
SK-MEL-2 = tested on: SK-MEL-2
Hs-578T = tested on: Hs-578T
NCI-H522 = tested on: NCI-H522
SF-268 = tested on: SF-268
PC-3 = tested on: PC-3
NCI-H226 = tested on: NCI-H226
DU-145 = tested on: DU-145

| Structure (SMILES) | GI50 (OVCAR-8) | GI50 (HCT-116) | GI50 (UO-31) | GI50 (SK-MEL-5) | GI50 (A498) | GI50 (UACC-257) | GI50 (HT-29) | GI50 (SNB-75) | GI50 (CAKI-1) | GI50 (K562) | GI50 (KM12) | GI50 (SN12C) | GI50 (BT-549) | GI50 (SK-MEL-2) | GI50 (Hs-578T) | GI50 (NCI-H522) | GI50 (SF-268) | GI50 (PC-3) | GI50 (NCI-H226) | GI50 (DU-145) |
| --- | --- | --- | --- | --- | --- | --- | --- | --- | --- | --- | --- | --- | --- | --- | --- | --- | --- | --- | --- | --- |
| NCC(Cc1ccccc1)P(=O)(O)O (stereo not given) | > 100 µM (inactive) | > 100 µM (inactive) | > 100 µM (inactive) | > 100 µM (inactive) | > 100 µM (inactive) | > 100 µM (inactive) | > 100 µM (inactive) | > 100 µM (inactive) | > 100 µM (inactive) | > 100 µM (inactive) | > 100 µM (inactive) | > 100 µM (inactive) | > 100 µM (inactive) | > 100 µM (inactive) | > 100 µM (inactive) | > 100 µM (inactive) | > 100 µM (inactive) | > 100 µM (inactive) | > 100 µM (inactive) | > 100 µM (inactive) |
| NC(=O)C1=CC2C3C=CC2(O)C(=O)OC3O1 (stereo not given) | 2.46 µM (inactive) | 2.62 µM (inactive) | 3.67 µM (inactive) | 2.38 µM (inactive) | 32.7 µM (inactive) | 2.58 µM (inactive) | 2.92 µM (inactive) | 7.98 µM (inactive) | 6.07 µM (inactive) | 7.29 µM (inactive) | 2.94 µM (inactive) | 4.28 µM (inactive) | 4.06 µM (inactive) | 3.57 µM (inactive) | 1.81 µM (inactive) | 1.83 µM (inactive) | 3.73 µM (inactive) | 3.57 µM (inactive) | 2.31 µM (inactive) | 3.89 µM (inactive) |
| O=c1[nH]c2ccc(CC(=S)N3CCN(c4ccccc4)CC3)cc2o1 | > 79.1 µM (inactive) | > 80.5 µM (inactive) | > 100 µM (inactive) | 48.9 µM (inactive) | > 30 µM (inactive) | > 100 µM (inactive) | > 100 µM (inactive) | > 34 µM (inactive) | 97.9 µM (inactive) | 53.2 µM (inactive) | 63.4 µM (inactive) | > 100 µM (inactive) | > 100 µM (inactive) | > 100 µM (inactive) | > 54.2 µM (inactive) | 86.7 µM (inactive) | > 76.4 µM (inactive) | > 100 µM (inactive) | > 42 µM (inactive) | > 100 µM (inactive) |
| CS(=O)(=O)N1CC(CI)c2ccc(O)cc21 (stereo not given) | 2.89 µM (inactive) | 2.98 µM (inactive) | 3.35 µM (inactive) | 1.43 µM (inactive) | 2.77 µM (inactive) | 3.36 µM (inactive) | 3.4 µM (inactive) | 1.79 µM (inactive) | 1.96 µM (inactive) | 2.66 µM (inactive) | 3.59 µM (inactive) | 3.44 µM (inactive) | 3.68 µM (inactive) | 2.1 µM (inactive) | 3.41 µM (inactive) | 1.15 µM (inactive) | 1.32 µM (inactive) | 2.6 µM (inactive) | 3.5 µM (inactive) | 3.05 µM (inactive) |
| COC(=O)c1cc2c3c(cc(NCCN)c2[nH]1)N(C(=O)c1cc2cc(OC)c(OC)c(OC)c2[nH]1)CC3CCl (stereo not given) | 0.109 µM (active) | 0.0198 µM (active) | 0.192 µM (active) | 0.0313 µM (active) | 0.131 µM (active) | 0.214 µM (active) | 0.0277 µM (active) | 0.0382 µM (active) | 0.144 µM (active) | 0.0247 µM (active) | 0.205 µM (active) | 0.0982 µM (active) | 0.229 µM (active) | 0.0628 µM (active) | 0.049 µM (active) | < 0.01 µM (active) | 0.0213 µM (active) | 0.0269 µM (active) | 0.0177 µM (active) | 0.0221 µM (active) |
| FC(F)(F)c1n[nH]c(SCc2ccc(Cl)cc2)n1 | > 100 µM (inactive) | > 100 µM (inactive) | 59.4 µM (inactive) | > 100 µM (inactive) | > 100 µM (inactive) | > 100 µM (inactive) | > 100 µM (inactive) | > 100 µM (inactive) | > 100 µM (inactive) | > 100 µM (inactive) | > 100 µM (inactive) | > 100 µM (inactive) | > 100 µM (inactive) | > 100 µM (inactive) | 94.8 µM (inactive) | > 100 µM (inactive) | > 100 µM (inactive) | > 100 µM (inactive) | > 100 µM (inactive) | > 100 µM (inactive) |
| CCOC(=O)C1=CNC(C(=O)OCC)C1c1cccn1-c1ccc(Cl)cc1[N+](=O)[O-] (stereo not given) | 25.8 µM (inactive) | 17.1 µM (inactive) | 22.9 µM (inactive) | 16.6 µM (inactive) | 50.7 µM (inactive) | 24.4 µM (inactive) | 16.1 µM (inactive) | 17.4 µM (inactive) | 20 µM (inactive) | 23.8 µM (inactive) | 20.2 µM (inactive) | 18.2 µM (inactive) | 22.8 µM (inactive) | 15.4 µM (inactive) | 15.8 µM (inactive) | 16 µM (inactive) | 18.2 µM (inactive) | 20.7 µM (inactive) | 20.1 µM (inactive) | 29.5 µM (inactive) |
| COc1cc(/C=C2\CCC(CN(C)C)C2=O)ccc1OC(=O)c1ccccc1 (stereo not given) | 8.59 µM (inactive) | 6.68 µM (inactive) | 16.3 µM (inactive) | 15.5 µM (inactive) | 18.3 µM (inactive) | 13.5 µM (inactive) | 8.07 µM (inactive) | 16 µM (inactive) | 17.1 µM (inactive) | 2.32 µM (inactive) | 2.99 µM (inactive) | 10.8 µM (inactive) | 16.1 µM (inactive) | 17.9 µM (inactive) | 8.02 µM (inactive) | 4 µM (inactive) | 12.3 µM (inactive) | 16.4 µM (inactive) | 18.2 µM (inactive) | 16.3 µM (inactive) |
